According to patent US6197751A, “Thymosin α1 promotes tissue repair, angiogenesis and cell migration” (The United States of America as represented by the …, priority 1998, dated 2001):
Ends that are not written are not given here.

Columns and labels:
Neutrophils = experiment: Boyden chamber migration, neutrophils; assay type: cell-based; details: for average number of cells that migrated ± SEM: Neutrophils
Procedure: (§1) Human umbilical vein endothelial cells (HUVECs) were isolated from freshly delivered cords according to Jaffe et al. (J. Clin. Invest. 52: 2745, 1973) and grown on Nunclon dishes (Nunc, Denmark) in RPMI 1640 (Life Technologies, Gaithersburg, Md.) supplemented with 20% bovine calf serum (Hyclone Laboratories, Logan Utah), 100 U/ml penicillin/streptomycin (Life Technologies, Gaithersburg, Md.), 50 μg/ml gentamycin (Life Technologies, Gaithersburg, Md.), 2.7 μg/ml amphotericin B (fungizone)(Life Technologies, Gaithersburg, Md.), 5 U/ml sodium heparin (Fisher Scientific, Pittsburgh, Pa.) and 200 μg/ml endothelial cell growth supplement (ECGS) (Collaborative Research, Bedford, Mass.). Cells between passage 3 and 5 were used for all experiments. Human coronary artery endothelial cells (HCAECs) were grown on Nunclon dishes in the HUVEC media. Foreskin fibroblasts (Ffs) were grown in DMEM supplemented with 10% fetal bovine serum (Hyclone) on Falcon (Becton Dickinson, N.J.) dishes. HT1080 cells (human fibrosarcoma cell line) were grown in Falcon flasks in DMEM supplemented with 10% fetal bovine serum. Neutrophils were freshly isolated from buffy coats as previously reported (Kibbey et al., J. Cell Phys. 160:185, 1994). Human aortic smooth muscle cells (AOSMCs) were grown in smooth muscle cell media (Clonetics, San Diego, Calif.) on Nunclon dishes.
(§2) Several cell types were tested to determine if the migratory stimulation observed with Tα1 was specific. […] HUVEC migration assays were carried out in Boyden chambers using 12 ,m pore PVP free filters coated with either a 0.1 mg/ml or 0.05 mg/ml solution of collagen IV as previously reported (Malinda et al., FASEB J. 11:474, 1997). Each condition was assayed in triplicate wells at least three times unless indicated. HCAECs, AOSMCs, FFs, HT1080 cells and neutrophils were cultured or isolated and assayed for migration as previously reported (Malinda et al., FASEB J. 11:474, 1997).

Monocytes = experiment: Boyden chamber migration, monocytes; assay type: cell-based; details: for average number of cells that migrated ± SEM: Monocytes
Procedure: [The procedure below names another cell line; the source lists this cell line under the same test.] as §2

[1] = test system: HT1080 cells (human fibrosarcoma cell line); experiment: Boyden chamber migration, HT1080 cells; assay type: cell-based
Procedure: as §1, §2

HUVECs = experiment: Tube formation assay on Matrigel; assay type: cell-based, human
Procedure: Migration and differentiation during angiogenesis can be studied in vitro using Matrigel, a basement membrane matrix on which HUVECs undergo capillary-like tube formation (Grant et al., J. Cell. Physiol. 153: 614, 1992; Kubota et al., J. Cell Biol. 107: 1589, 1988). The tube formation assay was performed according to Grant et al. (J. Cell. Physiol. 153:614, 1992) with the following modifications. Twenty-four well Nunclon plates were coated with 320 μl of Matrigel (10 mg/ml) and incubated at 37° C. for 30 min to promote gelling. 30,000 HUVECs were resuspended in growth media and added to each well with 1, 10, 100 and 1000 ng of synthetic Tα1, 20 and 200 μg/ml ECGS (a bovine brain extract that contains aFGF and bFGF and acts as a positive control) or media alone. The final serum concentrations were 10% or 5%. After 18 h, plates were fixed with Diff-Quik (Baxter Healthcare Corporation, McGraw Park, Ill.) and the length of the tubes was measured using an Olympus CK2 microscope with a 2× objective connected to a Javelin CCTV camera with a 3.3× coupler and NIH Image 1.57 software. Three random measurements of each of four wells at each culture condition were measured. Each experiment was repeated at least three times.

HUVEC [2] = experiment: HUVEC migration in Boyden chamber assays; assay type: cell-based, human
Procedure: as §2

foreskin fibroblasts = experiment: Boyden chamber migration, foreskin fibroblasts; assay type: cell-based; details: for average number of cells that migrated ± SEM: FF
Procedure: as §1, §2

[3] = test system: human aortic smooth muscle cells; experiment: Boyden chamber migration, aortic smooth muscle cells; assay type: cell-based; details: for average number of cells that migrated ± SEM: AOSMC
Procedure: as §1, §2

[4] = test system: human coronary artery endothelial cells; experiment: Boyden chamber migration, coronary artery endothelial cells; assay type: cell-based; details: for average number of cells that migrated ± SEM: HCAEC
Procedure: as §1, §2

HUVEC [5] = experiment: In vitro "scratch" wound closure assay; assay type: cell-based, human; details: media alone 1%
Procedure: During angiogenesis the cells may be presented with a constant level of Tα1. The "scratch" wound closure assay was used to assess the potential effects of constant doses of Tα1 on cell migration. Confluent monolayers were "scratch" wounded using the tip of a universal blue pipette tip and rinsed with PBS. Tα1 (1, 10, 100, and 1000 ng/ml) or ECGS (200 μg/ml) was added to the wells in fresh media lacking ECGS but containing 10 mM thymidine to inhibit cell proliferation (Malinda et al., FASEB J. 11: 474, 1997). Antibody inhibition experiments were carried out as described above by wounding the cell monolayer and then adding either anti-Tα1 polyclonal antibody (1/25, 1/50 dilution) or pre-immune serum (1/25 dilution), or fresh media to the plate.

C57Bl/6N female mice = experiment: Subcutaneous Matrigel plug assay; assay type: in vivo
Procedure: Since Tα1 enhanced HUVEC migration in vitro, experiments were performed to determine if Tα1 promoted cell migration and vessel formation in vivo. Endothelial cells invade and form vessels in Matrigel plugs containing angiogenic factors (Kibbey et al., J. Cell Phys. 160:185, 1994; Passaniti et al., Lab. Invest. 67: 519, 1992). […] Three random fields were collected and analyzed per plug in each of three experiments. […] Cells migrate into the plug from the area closest to the skin forming vessels (FIG. 5). Plugs containing Tα1 (FIGS. 5C and 5D) show many more cells than in the Matrigel alone (FIG. 5A). Cell morphology was similar to those in plugs containing 10 ng/ml of the positive control ECGS (FIG. 5B).

rats = experiment: Full thickness punch biopsy wound healing; assay type: in vivo; details: for reepithelization of the wound / collagen production (Masson's trichrome) / histology of dermis near dermal and epidermal junction: 8 day punch wounds; for wound healing compared to untreated wounds: rats
Procedure: Six full thickness 8 mm punch biopsy wounds were made on the dorsal surface of rats as previously reported (Bhartiya et al., J. Cell. Physiol. 150:312, 1992; Sihhu et al., J. Cell. Physiol. 169:108, 1996) and Tα1 was given topically at the time of wounding (5 μg in 50 μl) and again after 48 hr. Controls for the topical treatment received identical amounts of saline at the time of wounding and at 48 hr. Three rats in each group also received intraperitoneal injections at the time of wounding (60 μg in 300 μl) and again every other day. Controls for these animals received identical amounts of saline i.p. on the same injection schedule. At days 8 and 9 post-wounding, tissue was collected and fixed in 10% buffered formalin (i.p. n=18 samples; topical n=9 samples). The samples were sectioned and stained with H&E and Masson's Trichrome (American Histolabs, Gaithersburg, Md.).

FMLP [reference compound]
average number of cells that migrated ± SEM (Neutrophils; positive control 10^-7 M): 1404.7 ± 58.2 | average number of cells that migrated ± SEM (Monocytes; positive control 10^-7 M): 74 ± 2.1

laminin [LN, reference compound]
average number of cells that migrated ± SEM ([1]; HT1080, positive control 1 ug/ml): 661.2 ± 37 | average number of cells that migrated ± SEM ([1]; HT1080, positive control 5 ug/ml): 1136 ± 70.3

thymosin α1 (SDAAVDTSSEITTKDLKEKKEVVEEAEN; not fully specified; ends and bridges not checked; UniProt P06454 2-29, looked up) [Tα1, 28 amino acid peptide which results from the cleavage of the N-terminal region of prothymosin α1]
tube formation (HUVECs; 1 or 10 ng/ml Tα1, 5% serum): did not form tubes | tube formation (HUVECs; 100 and 1000 ng/ml Tα1, 5% serum): formed highly organized tubes | tube formation vs control cells (HUVECs; 100 or 1000 ng/ml Tα1, 10% serum): formed more tubes than control cells | average length of tubes (HUVECs; 100 or 1000 ng/ml Tα1, 10% serum, 18 h, media alone 208 μm): 316-324 μm | increase in HUVEC migration (HUVEC [2]; Tα1 in the lower wells, filters coated with collagen IV): 3-6 fold | checkerboard assay, chemoattraction vs chemokinesis (HUVEC [2]; increasing Tα1 in lower well vs in upper and lower wells): More cells migrated along the concentration gradient of Tα1 in the lower well | average number of cells that migrated ± SEM (foreskin fibroblasts; Thymosin α1 1 ng/ml): 5 ± 0.4 | average number of cells that migrated ± SEM (foreskin fibroblasts; Thymosin α1 10 ng/ml): 5 ± 0.4 | average number of cells that migrated ± SEM (foreskin fibroblasts; Thymosin α1 100 ng/ml): 4.8 ± 0.7 | average number of cells that migrated ± SEM (foreskin fibroblasts; Thymosin α1 1000 ng/ml): 5.2 ± 0.5 | migration toward Tα1 (foreskin fibroblasts; Foreskin fibroblasts): did not demonstrate any significant migration | average number of cells that migrated ± SEM ([3]; Thymosin α1 1 ng/ml): 1 ± 0.3 | average number of cells that migrated ± SEM ([3]; Thymosin α1 10 ng/ml): 1 ± 0.4 | average number of cells that migrated ± SEM ([3]; Thymosin α1 100 ng/ml): 0.5 ± 0.5 | average number of cells that migrated ± SEM ([3]; Thymosin α1 1000 ng/ml): 1 ± 0.4 | migration toward Tα1 ([3]; human aortic smooth muscle cells): did not demonstrate any significant migration | average number of cells that migrated ± SEM (Neutrophils; Thymosin α1 1 ng/ml): 138.7 | average number of cells that migrated ± SEM (Neutrophils; Thymosin α1 10 ng/ml): 138.7 ± 20 | average number of cells that migrated ± SEM (Neutrophils; Thymosin α1 100 ng/ml): 149.3 ± 13.5 | average number of cells that migrated ± SEM (Neutrophils; Thymosin α1 1000 ng/ml): 149.3 ± 27 | migration toward Tα1 (Neutrophils; neutrophils): did not demonstrate any significant migration | Monocyte migration (Monocytes; 100 ng/ml): appeared to be inhibited | Monocyte migration (Monocytes; 1000 ng/ml of Tα1): increased | average number of cells that migrated ± SEM (Monocytes; Thymosin α1 100 ng/ml): 20 ± 5.4 | average number of cells that migrated ± SEM (Monocytes; Thymosin α1 1000 ng/ml): 80 ± 7.6 | increase in migration over media alone ([4]; 1000 ng of Tα1): 2 fold | migration ([4]; 1-100 ng doses): Significant migration | average number of cells that migrated ± SEM ([4]; Thymosin α1 1 ng/ml): 14 ± 0.3 | average number of cells that migrated ± SEM ([4]; Thymosin α1 10 ng/ml): 16 ± 0.5 | average number of cells that migrated ± SEM ([4]; Thymosin α1 100 ng/ml): 18 ± 0.4 | average number of cells that migrated ± SEM ([4]; Thymosin α1 1000 ng/ml): 21 ± 0.4 | average number of cells that migrated ± SEM ([1]; HT1080, Thymosin α1 1 ng/ml): 2.4 ± 0.8 | average number of cells that migrated ± SEM ([1]; HT1080, Thymosin α1 10 ng/ml): 1.8 ± 0.4 | average number of cells that migrated ± SEM ([1]; HT1080, Thymosin α1 100 ng/ml): 1.3 ± 0.7 | average number of cells that migrated ± SEM ([1]; HT1080, Thymosin α1 1000 ng/ml): 0.9 ± 0.4 | migration toward Tα1 ([1]; HT1080 fibrosarcoma cells): did not demonstrate any significant migration | wound closure (HUVEC [5]; 100 ng/ml Tα1, 2 h): 7% | wound closure (HUVEC [5]; 1000 ng/ml Tα1, 2 h after wounding): 14% | cell migration into plugs (C57Bl/6N female mice; 1 μg/ml and 500 μg/ml): a decrease in migration was observed | cell migration and angiogenesis in vivo vs Matrigel alone (C57Bl/6N female mice; 5 μg/ml of Tα1): always significantly higher than Matrigel alone | reepithelization of the wound (rats; intraperitoneal on alternate days 60 μg/300 μl): Complete reepithelization | wound healing compared to untreated wounds (rats; intraperitoneal, 60 μg in 300 μl every other day): significantly accelerated wound healing | collagen production (Masson's trichrome) (rats; intraperitoneal): enhanced collagen production | histology of dermis near dermal and epidermal junction (rats; intraperitoneal): capillary ingrowth in granulation tissue and hypercellular dermis | reepithelization of the wound (rats; topical 5 μg/50 μl): complete reepithelization of the wound with 2-3 layers of thick epidermis | wound healing compared to untreated wounds (rats; topical, 5 μg in 50 μl at wounding and after 48 hr): significantly accelerated wound healing | collagen production (Masson's trichrome) (rats; topical): enhanced collagen production | histology of dermis near dermal and epidermal junction (rats; topical): capillary ingrowth in granulation tissue and hypercellular dermis

basic fibroblast growth factor [bFGF, reference compound]
average number of cells that migrated ± SEM (foreskin fibroblasts; positive control 10 ng/ml): 12.3 ± 0.3

B1: PDGF-BB: platelet derived growth factor B form, positive control (protein, UniProt P01127 82-190, looked up)
Platelet-derived growth …: SLGSLTIAEPAMIAECKTRTEVFEISRRLIDRTNANFLVWPPCVEVQRCSGCCNNRNVQCRPTQVQLRPVQVRKIEIVRKKPIFKKATVTLEDHLACKCETVAAARPVT
average number of cells that migrated ± SEM ([3]; positive control 10 ng/ml): 36 ± 4.5
